In patent publication US4460777A, “N-Substituted-2-pyridylindoles” (Ciba-Geigy Corporation, priority 1982, dated 1984):
Blank lines part the entries; values can stand above or below the compound they belong to.

Experiments:
[1] = target: T1, prostaglandin cyclooxygenase (Ovis aries, UniProt P05979); assay: in-vitro effect on prostaglandin cyclooxygenase; format: biochemical, sheep; conditions: 50% reduction in PGE2 synthesized, read-out: IC50 for inhibition of cyclooxygenase
T1 construct: Lyophilized sheep seminal vesicle microsomes are utilized as the prostaglandin-synthesizing enzyme preparation; from tissue; host or cells: lyophilized sheep seminal vesicle microsomes
T1 sequence (P05979 25-600): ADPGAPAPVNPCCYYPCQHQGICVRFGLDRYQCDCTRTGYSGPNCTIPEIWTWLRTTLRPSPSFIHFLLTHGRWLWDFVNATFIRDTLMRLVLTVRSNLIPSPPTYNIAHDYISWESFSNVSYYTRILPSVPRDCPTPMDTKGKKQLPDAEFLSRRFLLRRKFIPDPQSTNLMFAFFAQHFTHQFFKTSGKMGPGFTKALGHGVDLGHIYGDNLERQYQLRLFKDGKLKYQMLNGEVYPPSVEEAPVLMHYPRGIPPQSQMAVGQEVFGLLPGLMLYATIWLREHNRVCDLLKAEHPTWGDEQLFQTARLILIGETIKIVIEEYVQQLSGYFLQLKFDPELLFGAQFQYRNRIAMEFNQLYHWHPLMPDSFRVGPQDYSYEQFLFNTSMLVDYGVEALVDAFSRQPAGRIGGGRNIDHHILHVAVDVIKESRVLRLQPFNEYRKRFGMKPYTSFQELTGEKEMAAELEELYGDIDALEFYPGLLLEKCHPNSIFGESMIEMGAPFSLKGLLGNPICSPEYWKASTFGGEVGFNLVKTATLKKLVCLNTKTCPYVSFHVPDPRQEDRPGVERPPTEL
Method: The in-vitro effect on prostaglandin cyclooxygenase is measured by a modification of the method of Takeguchi et al. described in Biochemistry 10, 2372 (1971); the testing procedure is as follows: Lyophilized sheep seminal vesicle microsomes are utilized as the prostaglandin-synthesizing enzyme preparation. The conversion of ^14 C-arachidonic acid to PGE2 is measured. Test compounds (dissolved in buffer, or if necessary, in small amount of ethanol) are added to the incubation mixture. The prostaglandins are extracted and separated by thin-layer chromatography; the plates are scanned, the radioactive zones corresponding to PGE2 are transferred to liquid scintillation vials and counted for radioactivity. IC50 values for inhibition are determined graphically as the concentration of test compound causing a 50% reduction in the amount of PGE2 synthesized.

[2] = target: T2, prostacyclin (PGI2) synthetase (Bos taurus, UniProt Q29626); assay: in-vitro effect on prostacyclin (PGI2) synthetase; format: biochemical, bovine; conditions: ratio 6-keto-PGF1α/PGE2 reduced to 50% of control, read-out: IC50 for inhibition of prostacyclin synthetase
T2 construct: crude PGI2 synthetase in the form of a microsomal fraction of bovine aorta; from tissue; host or cells: bovine aorta, microsomal fraction
T2 sequence (Q29626 1-500): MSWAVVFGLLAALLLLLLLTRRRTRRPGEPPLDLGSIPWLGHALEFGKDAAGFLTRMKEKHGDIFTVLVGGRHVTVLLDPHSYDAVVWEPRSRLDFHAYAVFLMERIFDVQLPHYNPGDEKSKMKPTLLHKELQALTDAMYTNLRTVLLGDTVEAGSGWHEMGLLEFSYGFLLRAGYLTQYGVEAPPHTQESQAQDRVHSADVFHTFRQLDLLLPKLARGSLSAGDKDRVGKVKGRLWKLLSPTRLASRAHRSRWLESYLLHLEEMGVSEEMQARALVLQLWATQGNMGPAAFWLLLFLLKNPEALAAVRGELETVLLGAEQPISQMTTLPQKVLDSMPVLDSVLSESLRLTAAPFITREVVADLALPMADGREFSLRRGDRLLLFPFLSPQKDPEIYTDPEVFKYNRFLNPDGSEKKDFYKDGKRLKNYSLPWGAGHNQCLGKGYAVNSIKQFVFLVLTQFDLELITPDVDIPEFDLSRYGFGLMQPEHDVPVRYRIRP
Method: The in-vitro effect on prostacyclin (PGI2) synthetase is measured analogous to the method of Sun et al., Prostaglandins 14, 1055 (1977);
The testing procedure is as follows:
^14 C-Arachidonic acid is incubated with an enzyme mixture consisting of solubilized and partially purified prostaglandin cyclo-oxygenase from sheep seminal vesicles and crude PGI2 synthetase in the form of a microsomal fraction of bovine aorta.
Test compound (dissolved in buffer, or if necessary, in a small amount of ethanol) is placed in the incubation medium. The reaction mixture is incubated in 100 mM Tris HCl (pH 7.5) for 30 minutes at 37° C., acidified to pH 3 and extracted into ethyl acetate. The extract is evaporated to dryness; the residue is dissolved in acetone, spotted on thin-layer plates and chromatographed in a solvent system described in Sun et al. The radioactive zones are located with a scanner; those corresponding to 6-keto-PGF1 α (a stable end product of prostacyclin biotransformation) and PGE2 are transferred to liquid scintillation vials and counted. The ratio of counts for 6-keto-PGF1 α/PGE2 is calculated for each concentration of test compound used. IC50 values for inhibition are determined graphically as the concentration of test compound at which the ratio of 6-keto-PGF1 α/PGE2 is reduced to 50% of the control value.

thromboxane B2 = assay: plasma levels of thromboxane B2 in vivo after ionophore A23187 in rats; conditions: rat, oral dose as low as 0.10 mg/kg
Method: (§1) The inhibition of the synthesis and the reduction of plasma levels of thromboxane is determined in vivo on administration to rats in the following manner (as adapted from the procedures described by Tai et al. in Anal. Biochem. 87:343, 1978 and by Salmon in Prostaglglandins 15:383, 1978):
(§2) Rats are dosed with vehicle or test drug and injected intravenously with ionophore A23187 (0.5 mg/kg) two hours later. Blood is collected for analysis 2 minutes after the ionophore injection. A single aliquot of each plasma sample is assayed for thromboxane B2 and another aliquot for 6-keto-PGF1 α, the stable metabolites of thromboxane A2 and prostacyclin (PGI2) respectively, by radioimmunoassay.

prostacyclin (PGI2) = assay: plasma levels of prostacyclin in vivo after ionophore A23187 in rats; conditions: rat, oral dose 0.10 mg/kg or higher
Method: as §1, §2

platelet aggregation = assay: inhibition of variously induced platelet aggregation
thrombocytopenia = assay: inhibition of thrombocytopenia
[3] = prolongation of bleeding time in the rat; format: in vivo; conditions: oral, dose of about 30 mg/kg
Description: Experimentally, prolongation of bleeding time in the rat is indicative of a beneficial antithrombotic effect.

[4] = test system: arachidonic acid induced pulmonary obstruction; assay: protection against sudden death due to arachidonic acid induced pulmonary obstruction; format: in vivo; conditions: mice, oral, 100 mg/kg
thromboxane synthetase = target: T3, thromboxane synthetase (Homo sapiens, UniProt P24557); assay: in vitro inhibition of the thromboxane synthetase enzyme; format: biochemical; conditions: ratio TxB2/PGF2α+β reduced to 50% of control
T3 construct: crude microsomal preparation of thromboxane synthetase from lysed human platelets; from tissue; host or cells: lysed human platelets, crude microsomal preparation
T3 sequence (P24557 1-533): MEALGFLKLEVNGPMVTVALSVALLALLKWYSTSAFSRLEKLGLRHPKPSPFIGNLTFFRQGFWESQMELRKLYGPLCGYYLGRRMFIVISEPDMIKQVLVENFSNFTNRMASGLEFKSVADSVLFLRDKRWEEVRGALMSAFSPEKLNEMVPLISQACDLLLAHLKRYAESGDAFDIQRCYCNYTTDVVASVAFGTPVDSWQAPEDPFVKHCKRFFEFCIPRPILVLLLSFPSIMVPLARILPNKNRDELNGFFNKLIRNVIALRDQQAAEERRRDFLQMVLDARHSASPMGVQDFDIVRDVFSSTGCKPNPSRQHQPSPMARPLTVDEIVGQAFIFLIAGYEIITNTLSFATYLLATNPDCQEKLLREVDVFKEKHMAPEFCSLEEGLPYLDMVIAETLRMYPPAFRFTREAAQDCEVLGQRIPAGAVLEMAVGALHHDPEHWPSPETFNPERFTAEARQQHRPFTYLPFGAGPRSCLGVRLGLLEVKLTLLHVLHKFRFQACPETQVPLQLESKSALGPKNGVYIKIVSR
Method: Res. Comm. 74, 1432 (1977); the testi g procedure is as follows:
^14 C-Archidonic acid is incubated with an enzyme consisting of solubilized and partially purified prostaglandin cyclo-oxygenase from sheep seminal vesicles and a crude microsomal preparation of thromboxane synthetase from lysed human platelets. The test compound (dissolved in buffer, or if necessary, in a small amount of ethanol) is added to the incubation medium. At the end of the incubation period (30 minutes), Prostaglandin E2 (PGE2) is reduced to a mixture of Prostaglandin F2 α and F2 β (PGF2α+β) by addition of sodium borohydride. The radioactive products and excess substrate are extracted into ethyl acetate; the extract is evaporated to dryness; the residue is dissolved in acetone, spotted on thin-layer plates and chromatographed in the solvent system toluene:acetone:glacial acetic acid (100 volumes:100 volumes:3 volumes). The radioactive zones are located; those corresponding to Thromboxane B2 (TxB2) and PGF2 α+β are transferred to liquid scintillatiopn vials and counted. The ratio of counts for TxB2 /PGF2 α+β is calculated for each concentration of test compound and IC50 values are determined graphically as the concentration of test compound at which the ratio of TxB2 /PGF2 α+β is reduced to 50% of the control value.

Compound: Cc1c(-c2cccnc2)n(CCCCCCCC(=O)O)c2ccccc12 [Example 1, 1-(7-carboxyheptyl)-3-methyl-2-(3-pyridyl)indole]
IC50 [1]: ~100000 nM | IC50 [2]: ~100000 nM | decrease of the plasma concentration of thromboxane B2 (thromboxane B2): over 50% | plasma level of prostacyclin (prostacyclin (PGI2)): a surprising increase | inhibition of variously induced platelet aggregation (platelet aggregation): inhibits | inhibition of thrombocytopenia (thrombocytopenia): inhibits | bleeding time [3]: prolongs bleeding time | protection against sudden death [4]: protects against sudden death

Compound: Cc1c(-c2cccnc2)n(Cc2ccc(C(=O)O)cc2)c2ccccc12 [Example 11, 1-(4-carboxybenzyl)-3-methyl-2-(3-pyridyl)indole]
IC50 (thromboxane synthetase): 50 nM

More lines, in order of falling IC50 (thromboxane synthetase), values ahead:

IC50 (thromboxane synthetase): 20 nM
Compound: Cc1c(-c2cccnc2)n(CCCCCC(=O)O)c2ccc(CCC(=O)O)cc12 [Example 9, 1-(5-carboxypentyl)-5-(2-carboxyethyl)-3-methyl-2-(3-pyridyl)indole]

IC50 (thromboxane synthetase): 10 nM
Compound: Cc1c(-c2cccnc2)n(CCCCCC(N)=O)c2ccc(Cl)cc12 [Example 13, 1-(5-carbamoylpentyl)-5-chloro-3-methyl-2-(3-pyridyl)indole]

IC50 (thromboxane synthetase): 1 nM
Compound: Cc1c(-c2cccnc2)n(CCCCCC(=O)O)c2ccc(Cl)cc12 [Example 7, 1-(5-carboxypentyl)-5-chloro-3-methyl-2-(3-pyridyl)indole]
